Data published in patent US9353090B2, “Heterocyclic carboxylic acids as activators of soluble guanylate cyclase” (Boehringer Ingelheim International GmbH, priority 2014, dated 2016).
Values after ≈ are worked out from the molar mass of the structure shown.

Columns and labels:
[1] = target: human soluble guanylate cyclase alpha 1 and beta 1 subunits (sGC) (Homo sapiens (Human), UniProt Q02108+Q02153); assay: sGC cellular activator assay (cGMP, HTRF), in the presence and absence of 50% human serum; format: cell-based; settings: CHO cells stably expressing human sGC alpha 1/beta 1, preincubated with 40 microM ODQ; cGMP by HTRF; Table 2 does not state whether with or without 50% human serum
Method in brief: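 Heme-oxidized conditions: ODQ (40 microM, 1 h) pretreatment of CHO cells stably expressing human α1/β1 sGC, in buffer containing 0.1% BSA and IBMX.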

[2] = Human liver microsome (HLM) metabolic stability assay; format: in vitro ADME; settings: human liver microsomes
Method in brief: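 Compound at 1 uM incubated with human liver microsomes at 37° C. for 60 min after NADPH addition. Aliquots quenched in cold acetonitrile at 0, 5, 15, 30 and 60 min and analysed by LC/MS/MS. t1/2 from ln(% remaining) vs time slope; CLint, CLh and % Qh derived from it (n=1).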

physchem = settings: kinetic from dmso stock
[3] = pH 2.2, aqueous buffer, Solubility (pH 2.2)
[4] = pH 4.5, aqueous buffer, Solubility (pH 4.5)
[5] = pH 6.8, aqueous buffer, Solubility (pH 6.8)

Chain of human soluble guanylate cyclase alpha 1 and beta 1 subunits (sGC) (Q02108 whole entry partner): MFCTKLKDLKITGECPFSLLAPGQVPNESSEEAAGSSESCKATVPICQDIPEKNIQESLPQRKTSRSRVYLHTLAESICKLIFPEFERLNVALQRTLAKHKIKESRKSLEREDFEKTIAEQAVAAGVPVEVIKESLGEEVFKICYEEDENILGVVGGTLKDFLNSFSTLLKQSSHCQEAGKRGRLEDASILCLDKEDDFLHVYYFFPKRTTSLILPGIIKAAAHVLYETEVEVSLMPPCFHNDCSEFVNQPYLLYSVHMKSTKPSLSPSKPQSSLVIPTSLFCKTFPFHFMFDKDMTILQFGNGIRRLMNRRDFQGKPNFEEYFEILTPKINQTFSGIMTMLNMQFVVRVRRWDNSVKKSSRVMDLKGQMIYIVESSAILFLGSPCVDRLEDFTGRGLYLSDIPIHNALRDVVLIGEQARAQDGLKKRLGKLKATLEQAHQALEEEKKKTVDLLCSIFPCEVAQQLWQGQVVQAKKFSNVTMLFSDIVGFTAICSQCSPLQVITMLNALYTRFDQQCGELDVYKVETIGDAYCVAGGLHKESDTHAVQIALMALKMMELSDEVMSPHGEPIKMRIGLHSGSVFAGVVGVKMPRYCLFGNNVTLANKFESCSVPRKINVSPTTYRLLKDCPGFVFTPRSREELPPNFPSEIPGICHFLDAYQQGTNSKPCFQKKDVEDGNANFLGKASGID
Chain of human soluble guanylate cyclase alpha 1 and beta 1 subunits (sGC) (Q02153 whole entry): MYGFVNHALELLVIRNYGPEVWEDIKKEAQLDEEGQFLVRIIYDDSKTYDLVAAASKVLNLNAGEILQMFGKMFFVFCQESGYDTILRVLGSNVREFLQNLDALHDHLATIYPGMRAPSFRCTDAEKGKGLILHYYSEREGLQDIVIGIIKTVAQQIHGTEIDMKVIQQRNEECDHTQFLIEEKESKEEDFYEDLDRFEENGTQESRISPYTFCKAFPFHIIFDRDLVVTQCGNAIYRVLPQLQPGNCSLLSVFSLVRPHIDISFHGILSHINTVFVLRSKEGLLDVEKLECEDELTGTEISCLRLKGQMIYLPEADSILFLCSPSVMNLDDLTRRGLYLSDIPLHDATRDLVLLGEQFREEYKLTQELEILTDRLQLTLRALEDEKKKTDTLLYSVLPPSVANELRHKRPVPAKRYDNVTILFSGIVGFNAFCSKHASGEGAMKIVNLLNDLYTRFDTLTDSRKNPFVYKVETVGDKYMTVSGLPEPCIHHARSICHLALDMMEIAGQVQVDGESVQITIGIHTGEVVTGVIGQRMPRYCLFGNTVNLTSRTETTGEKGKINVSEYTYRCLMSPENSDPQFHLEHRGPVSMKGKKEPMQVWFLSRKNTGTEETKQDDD

Structure (SMILES)	EC50 [1]	Metabolic stability (Qh %), % hepatic blood flow [2]	solubility at 24 h (physchem; [3])	solubility at 24 h (physchem; [4])	solubility at 24 h (physchem; [5])
COC[C@H]1N(c2cccc(-c3cccc(C)c3OCc3cc(C)c4c(c3C)CCN(C3CCOCC3)C4)n2)C[C@@H]2C[C@@]21C(=O)O [Compound 215]	10 nM	<24%	143 µg/mL (≈ 233 µM)	135 µg/mL (≈ 221 µM)	129 µg/mL (≈ 211 µM)
COC[C@H]1N(c2cccc(-c3cccc(C)c3OCc3cc(F)c4c(c3)CCN(C3CCOCC3)C4)n2)C[C@@H]2C[C@@]21C(=O)O [Compound 216]	14 nM	39%	144 µg/mL (≈ 240 µM)	139 µg/mL (≈ 231 µM)	134 µg/mL (≈ 223 µM)
COC[C@H]1N(c2cccc(-c3cccc(C)c3OCc3cc(C#N)c4c(c3)CCN(C3CCOCC3)C4)n2)C[C@@H]2C[C@@]21C(=O)O [Compound 217]	40 nM	44%	167 µg/mL (≈ 274 µM)	162 µg/mL (≈ 266 µM)	158 µg/mL (≈ 259 µM)
COC[C@H]1N(c2cccc(-c3cc(C)ccc3OCc3ccc4c(c3C)CCN(C3CCOCC3)C4)n2)C[C@@H]2C[C@@]21C(=O)O [Compound 218]	81 nM	<24%	144 µg/mL (≈ 241 µM)	139 µg/mL (≈ 233 µM)	134 µg/mL (≈ 224 µM)
COC[C@H]1N(c2cccc(-c3cc(C)ccc3OCc3cc(C)c4c(c3)CCN(C3CCOCC3)C4)n2)C[C@@H]2C[C@@]21C(=O)O [Compound 219]	263 nM	<24%	146 µg/mL (≈ 245 µM)	142 µg/mL (≈ 238 µM)	137 µg/mL (≈ 229 µM)
COC[C@H]1N(c2cccc(-c3cccc(C(F)(F)F)c3OCc3cc(C)c4c(c3)CCN(C3CCOCC3)C4)n2)C[C@@H]2C[C@@]21C(=O)O [Compound 220]	9 nM	34%	167 µg/mL (≈ 256 µM)	136 µg/mL (≈ 209 µM)	133 µg/mL (≈ 203 µM)
COC[C@H]1N(c2cccc(-c3cccc(Cl)c3OCc3cc(C)c4c(c3)CCN(C3CCOCC3)C4)n2)C[C@@H]2C[C@@]21C(=O)O [Compound 221]	12 nM	<24%	155 µg/mL (≈ 251 µM)	144 µg/mL (≈ 233 µM)	132 µg/mL (≈ 213 µM)
COC[C@H]1N(c2cccc(-c3cccc(C)c3OCc3cc(C)c4c(c3)CN(C3CCOCC3)C4)n2)C[C@@H]2C[C@@]21C(=O)O [Compound 222]	23 nM	<24%	132 µg/mL (≈ 227 µM)	130 µg/mL (≈ 222 µM)	119 µg/mL (≈ 203 µM)
COC[C@H]1N(c2cccc(-c3cccc(C)c3OCc3ccc4c(c3C)CN(C3CCOCC3)C4)n2)C[C@@H]2C[C@@]21C(=O)O [Compound 223]	23 nM	<24%	145 µg/mL (≈ 248 µM)	140 µg/mL (≈ 239 µM)	132 µg/mL (≈ 226 µM)
COC[C@H]1N(c2cccc(-c3cccc(C)c3OCc3ccc4c(c3)CN(C3CCOCC3)CC4)n2)C[C@@H]2C[C@@]21C(=O)O [Compound 224]	51 nM	31%	150 µg/mL (≈ 257 µM)	145 µg/mL (≈ 249 µM)	136 µg/mL (≈ 233 µM)
COC[C@H]1N(c2cccc(-c3cccc(C)c3OCc3ccc4c(c3)[C@@H](C)CN(C3CCOCC3)CC4)n2)C[C@@H]2C[C@@]21C(=O)O [Compound 225]	5 nM	25%	136 µg/mL (≈ 222 µM)	135 µg/mL (≈ 220 µM)	129 µg/mL (≈ 211 µM)
COC[C@H]1N(c2cccc(-c3cccc(C)c3OCc3ccc4c(c3)[C@H](C)CN(C3CCOCC3)CC4)n2)C[C@@H]2C[C@@]21C(=O)O [Compound 226]	6 nM	<24%	145 µg/mL (≈ 237 µM)	142 µg/mL (≈ 231 µM)	134 µg/mL (≈ 219 µM)
COC[C@H]1N(c2cccc(-c3cccc(C(F)(F)F)c3OCc3cc(C)c4c(c3)CCN(C3COC3)C4)n2)C[C@@H]2C[C@@]21C(=O)O [Compound 227]	9 nM	30%	142 µg/mL (≈ 228 µM)	128 µg/mL (≈ 205 µM)	138 µg/mL (≈ 221 µM)
Cc1ccc(OCc2cc(C)c3c(c2)CCN(C2CCOCC2)C3)c(-c2csc(N3CC[C@H](C(=O)O)[C@H](C)C3)n2)c1 [Compound 236]	66 nM	<24%	141 µg/mL (≈ 245 µM)	131 µg/mL (≈ 228 µM)	129 µg/mL (≈ 225 µM)
COC[C@H]1N(c2nccc(-c3cccc(C)c3OCc3cc(C)c4c(c3)CCN(C3CCOCC3)C4)n2)CC2C[C@@]21C(=O)O (stereo partly shown) [Compound 237]	42 nM	<24%	156 µg/mL (≈ 260 µM)	136 µg/mL (≈ 227 µM)	143 µg/mL (≈ 238 µM)

Results, then the compound that gave them:

EC50 [1]	Metabolic stability (Qh %), % hepatic blood flow [2]	solubility at 24 h (physchem; [3])	solubility at 24 h (physchem; [4])	solubility at 24 h (physchem; [5])	Structure (SMILES)
6 nM	<24%	148 µg/mL (≈ 239 µM)	114 µg/mL (≈ 183 µM)	107 µg/mL (≈ 172 µM)	CCO[C@@H]1CN(c2nc(-c3cccc(C)c3OCc3cc4c(c(OC)c3)CN(C3CCOCC3)CC4)cs2)CC[C@@H]1C(=O)O [Compound 228]
4 nM	<24%	122 µg/mL (≈ 196 µM)	116 µg/mL (≈ 187 µM)	114 µg/mL (≈ 184 µM)	CCO[C@@H]1CN(c2nc(-c3cc(C)ccc3OCc3cc4c(c(OC)c3)CN(C3CCOCC3)CC4)cs2)CC[C@@H]1C(=O)O [Compound 229]
6 nM	83%	131 µg/mL (≈ 213 µM)	128 µg/mL (≈ 209 µM)	120 µg/mL (≈ 194 µM)	CCO[C@@H]1CN(c2cccc(-c3cccc(C)c3OCc3cc4c(c(OC)c3)CN(C3CCOCC3)CC4)n2)CC[C@@H]1C(=O)O [Compound 230]
13 nM	58%	126 µg/mL (≈ 205 µM)	126 µg/mL (≈ 205 µM)	121 µg/mL (≈ 196 µM)	CCO[C@@H]1CN(c2cccc(-c3cc(C)ccc3OCc3cc4c(c(OC)c3)CN(C3CCOCC3)CC4)n2)CC[C@@H]1C(=O)O [Compound 231]
330 nM	<24%	142 µg/mL (≈ 229 µM)	131 µg/mL (≈ 211 µM)	131 µg/mL (≈ 211 µM)	CCO[C@H]1CN(c2nc(-c3cccc(C)c3OCc3cc4c(c(OC)c3)CN(C3CCOCC3)CC4)cs2)CC[C@H]1C(=O)O [Compound 232]
190 nM	<24%	135 µg/mL (≈ 217 µM)	124 µg/mL (≈ 200 µM)	122 µg/mL (≈ 197 µM)	CCO[C@H]1CN(c2nc(-c3cc(C)ccc3OCc3cc4c(c(OC)c3)CN(C3CCOCC3)CC4)cs2)CC[C@H]1C(=O)O [Compound 233]
257 nM	55%	128 µg/mL (≈ 207 µM)	124 µg/mL (≈ 201 µM)	117 µg/mL (≈ 190 µM)	CCO[C@H]1CN(c2cccc(-c3cccc(C)c3OCc3cc4c(c(OC)c3)CN(C3CCOCC3)CC4)n2)CC[C@H]1C(=O)O [Compound 234]
680 nM	50%	128 µg/mL (≈ 208 µM)	127 µg/mL (≈ 206 µM)	119 µg/mL (≈ 193 µM)	CCO[C@H]1CN(c2cccc(-c3cc(C)ccc3OCc3cc4c(c(OC)c3)CN(C3CCOCC3)CC4)n2)CC[C@H]1C(=O)O [Compound 235]
